Experimental data reported in patent publication US6737383B1, “Herbicidal oxadiazolidines” (priority 1999, dated 2004).

Tests used:
winter wheat [1] = assay: Test E winter wheat; type: in vivo, Triticum aestivum; conditions: Postemergence; for Plant response rating, Wheat (winter): 0 to 100 scale; for Wheat (winter) plant response rating: Rate 250 g/ha, 0 to 100 scale where 0 is no effect and 100 is complete control
In short: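 Compound formulated with surfactant in a non-phytotoxic solvent (postemergence: young 1- to 4-leaf plants); held in greenhouse approx. 21–28 days; visual assessment against untreated plants.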

Italian ryegrass = assay: Test E Italian ryegrass; type: in vivo, Lolium multiflorum; conditions: Preemergence; for I. Ryegrass plant response rating (0 to 100 scale): Rate 250 g/ha; for Plant response rating, I. Ryegrass: 0 to 100 scale where 0 is no effect and 100 is complete control
wild oat [2] = assay: Test E wild oat; type: in vivo, Avena fatua; conditions: Preemergence; for Wild oat plant response rating (0 to 100 scale): Rate 250 g/ha; for Plant response rating, Wild oat: 0 to 100 scale where 0 is no effect and 100 is complete control
winter barley = assay: Test E winter barley; type: in vivo, Hordeum vulgare; conditions: Preemergence; for Barley (winter) plant response rating (0 to 100 scale): Rate 250 g/ha; for Plant response rating, Barley (winter): 0 to 100 scale where 0 is no effect and 100 is complete control
winter wheat [3] = assay: Test E winter wheat; type: in vivo, Triticum aestivum; conditions: Preemergence; for Wheat (winter) plant response rating (0 to 100 scale): Rate 250 g/ha; for Plant response rating, Wheat (winter): 0 to 100 scale where 0 is no effect and 100 is complete control
morningglory = assay: Test B pre/postemergence morningglory; type: in vivo, Ipomoea hederacea; conditions: for Morningglory plant response rating (0 to 10 scale): 0 is no effect
In short: (§1)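 Response is a visual 0-to-10 score relative to untreated plants, where 0 means no effect and 10 means complete control, taken twelve to sixteen days after application. Treatments went onto soil at planting and onto foliage of 1- to 4-leaf plants, using a surfactant-containing non-phytotoxic solvent.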

blackgrass = assay: Test E blackgrass; type: in vivo, Alopecurus myosuroides; conditions: Preemergence; for Blackgrass plant response rating (0 to 100 scale): Rate 250 g/ha; for Plant response rating, Blackgrass: 0 to 100 scale where 0 is no effect and 100 is complete control
green foxtail = assay: Test E green foxtail; type: in vivo, Setaria viridis; conditions: Preemergence; for Green foxtail plant response rating (0 to 100 scale): Rate 250 g/ha; for Plant response rating, Green foxtail: 0 to 100 scale where 0 is no effect and 100 is complete control
pigweed = assay: Test B pre/postemergence pigweed; type: in vivo, Amaranthus retroflexus; conditions: for Redroot pigweed plant response rating (0 to 10 scale): 0 is no effect
In short: as §1

wild oat [4] = assay: Test B pre/postemergence wild oat; type: in vivo, Avena fatua; conditions: for Wild oats plant response rating (0 to 10 scale): Rate 125 g/ha, 0 is no effect
In short: as §1

[5] = Rate 1000 g/ha, 0 is no effect and 100 is complete control
[6] = Rate 500 g/ha, 0 no effect, 100 complete control
[7] = Postemergence, Rate 125 g/ha, scale of 0 to 10 where 0 is no effect and 10 is complete control
[8] = Preemergence, Rate 62 g/ha, scale of 0 to 10 where 0 is no effect and 10 is complete control
[9] = Preemergence, Rate 125 g/ha, 10 is complete control
[10] = Preemergence, Rate 250 g/ha, scale 0 to 10, 0 is no effect, 10 is complete control
[11] = Preemergence, Rate 500 g/ha, scale 0 to 10 (0 no effect, 10 complete control)
[12] = Rate 62 g/ha, Postemergence, scale of 0 to 10 where 0 is no effect and 10 is complete control
[13] = Rate 250 g/ha, Postemergence, scale 0 to 10, 0 is no effect, 10 is complete control
[14] = Rate 500 g/ha, Postemergence, scale 0 to 10
[15] = Preemergence, 10 is complete control

Structure (SMILES): CC(C)N(C(=O)n1oc(=O)n([C@@H](C)c2ccccc2)c1=O)c1ccc(F)cc1 [Compound 167]
- Plant response rating, Wheat (winter) (winter wheat [1]; [5]): 50
- Plant response rating, Wheat (winter) (winter wheat [1]; [6]): 40
- Wheat (winter) plant response rating (winter wheat [1]): 30
- I. Ryegrass plant response rating (0 to 100 scale) (Italian ryegrass): 30
- Plant response rating, I. Ryegrass (Italian ryegrass; Rate 500 g/ha): 65
- Plant response rating, I. Ryegrass (Italian ryegrass; Rate 1000 g/ha): 80
- Wild oat plant response rating (0 to 100 scale) (wild oat [2]): 30
- Plant response rating, Wild oat (wild oat [2]; Rate 500 g/ha): 40
- Plant response rating, Wild oat (wild oat [2]; Rate 1000 g/ha): 50
- Barley (winter) plant response rating (0 to 100 scale) (winter barley): 40
- Plant response rating, Barley (winter) (winter barley; Rate 500 g/ha): 40
- Plant response rating, Barley (winter) (winter barley; Rate 1000 g/ha): 20
- Wheat (winter) plant response rating (0 to 100 scale) (winter wheat [3]): 10
- Plant response rating, Wheat (winter) (winter wheat [3]; Rate 500 g/ha): 20
- Plant response rating, Wheat (winter) (winter wheat [3]; Rate 1000 g/ha): 30
- Morningglory plant response rating (morningglory; [7]): 5
- Morningglory plant response rating (morningglory; [8]): 0
- Morningglory plant response rating (0 to 10 scale) (morningglory; [9]): 0
- Morningglory plant response rating (morningglory; [10]): 0
- Morningglory plant response rating (morningglory; [11]): 0
- Morningglory plant response rating (morningglory; [12]): 2
- Plant response rating, Morningglory (morningglory; [13]): 5
- Morningglory plant response rating (morningglory; [14]): 8
- Blackgrass plant response rating (0 to 100 scale) (blackgrass): 50
- Plant response rating, Blackgrass (blackgrass; Rate 500 g/ha): 60
- Plant response rating, Blackgrass (blackgrass; Rate 1000 g/ha): 80
- Green foxtail plant response rating (0 to 100 scale) (green foxtail): 60
- Plant response rating, Green foxtail (green foxtail; Rate 500 g/ha): 85
- Plant response rating, Green foxtail (green foxtail; Rate 1000 g/ha): 100
- Redroot pigweed plant response rating (pigweed; [7]): 0
- Redroot pigweed plant response rating (pigweed; [8]): 0
- Redroot pigweed plant response rating (0 to 10 scale) (pigweed; [9]): 6
- Redroot pigweed plant response rating (pigweed; [10]): 8
- Redroot pigweed plant response rating (pigweed; [11]): 8
- Redroot pigweed plant response rating (pigweed; [12]): 0
- Plant response rating, Redroot pigweed (pigweed; [13]): 3
- Redroot pigweed plant response rating (pigweed; [14]): 7
- Wild oats plant response rating (wild oat [4]; [8]): 0
- Wild oats plant response rating (0 to 10 scale) (wild oat [4]; [15]): 0
- Wild oats plant response rating (wild oat [4]; [10]): 3
- Wild oats plant response rating (wild oat [4]; [11]): 6
- Plant response rating, Wild oats (wild oat [4]; [13]): 0
- Wild oats plant response rating (wild oat [4]; [14]): 0

Structure (SMILES): CC1CCCCC1n1c(=O)on(C(=O)N(c2ccccc2)C(C)C)c1=O (centres unmarked) [Compound 162]
- Plant response rating, Wheat (winter) (winter wheat [1]; [5]): 50
- Plant response rating, Wheat (winter) (winter wheat [1]; [6]): 40
- Wheat (winter) plant response rating (winter wheat [1]): 30
- I. Ryegrass plant response rating (0 to 100 scale) (Italian ryegrass): 50
- Plant response rating, I. Ryegrass (Italian ryegrass; Rate 500 g/ha): 65
- Plant response rating, I. Ryegrass (Italian ryegrass; Rate 1000 g/ha): 70
- Wild oat plant response rating (0 to 100 scale) (wild oat [2]): 50
- Plant response rating, Wild oat (wild oat [2]; Rate 500 g/ha): 50
- Plant response rating, Wild oat (wild oat [2]; Rate 1000 g/ha): 60
- Barley (winter) plant response rating (0 to 100 scale) (winter barley): 30
- Plant response rating, Barley (winter) (winter barley; Rate 500 g/ha): 30
- Plant response rating, Barley (winter) (winter barley; Rate 1000 g/ha): 40
- Wheat (winter) plant response rating (0 to 100 scale) (winter wheat [3]): 30
- Plant response rating, Wheat (winter) (winter wheat [3]; Rate 500 g/ha): 15
- Plant response rating, Wheat (winter) (winter wheat [3]; Rate 1000 g/ha): 40
- Morningglory plant response rating (morningglory; [7]): 6
- Morningglory plant response rating (morningglory; [8]): 0
- Morningglory plant response rating (0 to 10 scale) (morningglory; [9]): 0
- Morningglory plant response rating (morningglory; [10]): 0
- Morningglory plant response rating (morningglory; [11]): 0
- Morningglory plant response rating (morningglory; [12]): 6
- Plant response rating, Morningglory (morningglory; [13]): 10
- Morningglory plant response rating (morningglory; [14]): 10
- Blackgrass plant response rating (0 to 100 scale) (blackgrass): 55
- Plant response rating, Blackgrass (blackgrass; Rate 500 g/ha): 60
- Plant response rating, Blackgrass (blackgrass; Rate 1000 g/ha): 55
- Green foxtail plant response rating (0 to 100 scale) (green foxtail): 60
- Plant response rating, Green foxtail (green foxtail; Rate 500 g/ha): 65
- Plant response rating, Green foxtail (green foxtail; Rate 1000 g/ha): 85
- Redroot pigweed plant response rating (pigweed; [7]): 0
- Redroot pigweed plant response rating (pigweed; [8]): 0
- Redroot pigweed plant response rating (0 to 10 scale) (pigweed; [9]): 0
- Redroot pigweed plant response rating (pigweed; [10]): 0
- Redroot pigweed plant response rating (pigweed; [11]): 7
- Redroot pigweed plant response rating (pigweed; [12]): 0
- Plant response rating, Redroot pigweed (pigweed; [13]): 0
- Redroot pigweed plant response rating (pigweed; [14]): 0
- Wild oats plant response rating (wild oat [4]; [8]): 0
- Wild oats plant response rating (0 to 10 scale) (wild oat [4]; [15]): 0
- Wild oats plant response rating (wild oat [4]; [10]): 2
- Wild oats plant response rating (wild oat [4]; [11]): 5
- Plant response rating, Wild oats (wild oat [4]; [13]): 0
- Wild oats plant response rating (wild oat [4]; [14]): 4
